From patent publication US6225336A, “Compounds having [2.2.1] bicyclo skeleton” (Shionogi & Co., Ltd., priority 1997, dated 2001)

Assays:
PGD2 Receptor [1] = target: T1, PGD2 Receptor (Homo sapiens, UniProt Q13258); assay: Antagonistic Activity Against PGD2 Receptor Using Human Platelet (cAMP increased by PGD2); assay type: cell-based; conditions: inhibition of cAMP increase by 0.1 μM PGD2 in washed human platelets
T1 construct: endogenous in cells; host or cells: washed human platelets from a healthy volunteer
T1 sequence (Q13258 1-359): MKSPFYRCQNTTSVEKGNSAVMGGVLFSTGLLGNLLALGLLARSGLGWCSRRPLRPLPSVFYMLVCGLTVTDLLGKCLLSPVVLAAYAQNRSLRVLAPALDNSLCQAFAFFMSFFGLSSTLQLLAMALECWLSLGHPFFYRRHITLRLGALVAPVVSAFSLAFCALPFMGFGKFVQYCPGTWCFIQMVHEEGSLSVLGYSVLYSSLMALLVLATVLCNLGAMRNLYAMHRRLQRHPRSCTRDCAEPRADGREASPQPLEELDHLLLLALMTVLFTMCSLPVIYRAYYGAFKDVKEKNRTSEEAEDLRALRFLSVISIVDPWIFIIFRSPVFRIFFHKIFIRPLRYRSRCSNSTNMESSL
Description: Experiment 2 Evaluation of Antagonistic Activity Against PGD2 Receptor Using Human Platelet
Peripheral blood was collected from a healthy volunteer using a syringe in which 1/9 volume of a citric acid/dextrose solution was previously added. The sample was subjected to centrifugation at 180 g for 10 min to obtain the supernatant (PRP: platelet rich plasma). The resultant PRP was washed 3 times with a washing buffer and the number of platelet was counted with a micro cell counter. A suspension adjusted to contain the platelets at a final concentration of 5×10^8 /ml was warmed at 37° C., then subjected to the pre-treatment with 3-isobutyl-1-methylxanthine (0.5 mM) for 5 min. To the suspension was added a test compound diluted at various concentration, and 10 minutes later, 0.1 μM PGD2 was added to induce the reaction 2 minutes later, hydrochloric acid was added to terminate the reaction. The platelet was destroyed with an ultrasonic homogenizer. After centrifugation, the cAMP in the supernatant was determined by radioimmunoassay. PGD2 receptor antagonism of a drug was evaluated as follows: the inhibition rate regarding cAMP increased by the addition of PGD2 was determined at each concentration, and the concentration of the (drug required for 50% inhibition (IC50) was calculated. The results are shown below.

PGD2 Receptor [2] = target: T1, PGD2 Receptor; assay: Binding to PGD2 Receptor (human platelet membrane fraction, [3H]PGD2); conditions: 5 nM [3H]PGD2, pH 7.4, 4° C., 90 min, read-out: Inhibitory activity IC50
Description: (1) Preparation of Human Platelet Membrane Fraction
Blood was collected using a plastic syringe containing 3.8% sodium citrate from the vein of healthy volunteers (adult male and female), then put into a plastic test tube and mixed by slow-reversion. The sample was then centrifuged at 1800 rpm. for 10 min at room temperature, and the supernatant containing PRP (platelet-rich plasma) was collected. The PRP was re-centrifuged at 2300 rpm, for 22 min at room temperature to obtain platelets. The platelets were homogenized using a homogenizer (Ultra-Turrax) followed by centrifugation 3 times at 20,000 rpm, 10 min at 4° C. to obtain a platelet membrane fraction. After protein determination, the membrane fraction was adjusted to 2 mg/ml and preserved in a refrigerator at -80° C. until using for the binding test.
(2) Binding to PGD2 Receptor.
To a binding-reaction solution (50 mM Tris/HCl, pH 7.4, 5 mM MgCl2) (0.2 ml) were added the human platelet membrane fraction (0.1 mg) and 5 nM [^3 H ]PGD2 (115 Ci/mmol), and the mixture was reacted at 4° C. for 90 min. After the reaction, the mixture was filtered through a glass fiber filter paper and washed several times with cooled physiologic saline, then the radioactivity retained on the filter paper was measured. The specific-binding ratio was calculated by subtracting the non-specific binding ratio which is the radio activity similarly measured in the presence of 10 μM PGD2 from the total binding. The inhibitory activity of each compound was expressed as the concentration required for 50% inhibition (IC50), which was determined by depicting a substitution curve by plotting the binding ratio (%) in the presence of each compound, where the binding ratio in the absence of a test compound is 100%.

TXA2 Receptor = target: T2, TXA2 Receptor (Homo sapiens, UniProt P21731); assay: Binding to TXA2 Receptor (human platelet membrane fraction, [3H](+)-S-145 sodium salt); conditions: 2 nM [3H](+)-S-145 sodium salt, pH 7.4, room temperature, 90 min, read-out: Inhibitory activity to TXA2 Receptor: IC50
T2 construct: The human platelet fraction was prepared in accordance with Experiment 1 (1); from tissue; host or cells: human platelets from blood of healthy volunteers (membrane fraction)
T2 sequence (P21731 1-343): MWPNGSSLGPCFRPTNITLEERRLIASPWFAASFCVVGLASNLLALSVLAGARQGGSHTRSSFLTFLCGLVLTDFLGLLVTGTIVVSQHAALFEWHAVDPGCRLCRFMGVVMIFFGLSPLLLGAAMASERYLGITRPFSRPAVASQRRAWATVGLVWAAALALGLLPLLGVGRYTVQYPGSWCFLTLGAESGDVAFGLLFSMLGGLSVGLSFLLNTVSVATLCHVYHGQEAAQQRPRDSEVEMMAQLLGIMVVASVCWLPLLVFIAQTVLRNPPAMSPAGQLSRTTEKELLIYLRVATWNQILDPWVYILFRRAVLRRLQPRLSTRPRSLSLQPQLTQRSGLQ
Description: (I) Preparation of Human Platelet Membrane Fraction
The human platelet fraction was prepared in accordance with Experiment 1 (1).
(2) Binding to TXA2 Receptor
To a binding-reaction solution (50 mM Tris/HCl, pH 7.4. 10 mM MgCl2) (0.2 ml) were added the human platelet membrane fraction (0.05 mg) and 2 nM Sodium [^3 H](+)-(5Z)-7-[3-endo-[(phenylsulfonyl)aminol]bicyclo[2.2. 1]hept-2-exo-iy]heptenoate (Japanese Patent Publication (Kokoku) No.79060/1993, hereinafter referred to as (+)-S-145 sodium salt) (26.4 Ci/mmol), and the mixture was reacted at room temperature for 90 min. After the reaction, the resultant mixture was filtered through a glass fiber filter paper and washed several times with cooled physiological saline, then the radioactivity retained on the filter paper was measured. The specific-binding ratio was calculated by subtracting the non-specific binding ratio (the radio activity similarly determined in the presence of 10 μM (+)-S-145 sodium salt) from the total binding. The inhibitory activity of each compound was expressed as the concentration required for 50% inhibition (IC50), which was determined by depicting a substitution curve by plotting the binding ratio (%) in the presence of each compound, where the binding ratio in the absence of a test compound is 100%.

Hartley male guinea pig = assay: Nasal Blockage Model (intranasal pressure of OVA-sensitized guinea pigs); assay type: in vivo; conditions: 30 mg/kg orally 60 min before antigen exposure; intranasal pressure AUC 0-30 min vs vehicle
Description: Experiment Using Nasal Blockage Model
Recently, It has been paid an attention to a theory that PGD2 is one of causative substances of nasal blockage caused by allergic rhinitis, and proposed to develop an inhibitor of PGD2 biosynthesis or an antagonist to the PGD2 receptor as a drug reducing nasal blockage. Thus, as to the compounds of the present, invention. the anti-nasal blockage effect was evaluated by measuring the intranasal pressure of guinea pigs.
A 1% ovalbumin (OVA) solution was treated with an ultrasonic nebulizer to obtain an aerosol. Hartley male guinea pig was sensitized by inhaling the aerosol twice each or 10 min at one-week interval. Seven days after the sensitization, the guinea pig was exposed to an antigen to initiate the reaction. Briefly, the trachea of he guinea pig was incised under the anesthesia with pentobarbital (30 mg/kg. i.p.) and cannulas were inserted into the trachea at the pulmonary and nasal cavity sides. […] After arresting the spontaneous respiration of the guinea pig with Gallamin (2 mg/kg, i.v.), 4 ml/time of air was supplied to the snout side with an artificial respirator at the frequency of 70 times/min, and the atmospheric pressure required for the aeration was measured by using a transducer fitted at the branch. The measured pressure was used as a parameter of the nasal cavity resistance. […]

IC50 (PGD2 Receptor [1]) [nM]	IC50 (PGD2 Receptor [2]) [nM]	IC50 (TXA2 Receptor) [nM]	SMILES	Inhibitory Rate (%) (Hartley male guinea pig)
> 1000	5.5	1800	O=C(O)CCC/C=C\C[C@@H]1[C@H]2CC[C@H](C2)[C@H]1NC(=O)c1csc2ccc(O)cc12 [Compd. 18, (5Z)-7-{(1S, 2R, 3R, 4R)-3-(5-Hydroxybenzo[b]thiophen-3-carbonylamino)-bicyclo[2.2. 1]hept-2-yl}-5-heptenoic acid]	–
3.9	9.6	–	O=C(O)CCC/C=C\C[C@H]1[C@@H]2CC[C@@H](C2)[C@@H]1NC(=O)c1csc2ccc(O)cc12 [Compd. 1, (5Z)-7-{(1R, 2S, 3S, 4S)-3-(5-Hydroxybenzo[b]thiophen-3-carbonylamino)-bicyclo[2.2. 1]hept-2-yl}-5-heptenoic acid]	74
360	31	–	O=C(O)CCC/C=C\C[C@H]1[C@@H]2CC[C@@H](C2)[C@@H]1NC(=O)c1ccsc1 [Compd. 2, (5Z)-7-{(1R, 2S, 3S, 4S)-3-(Thiophen-3-carbonylamino)-bicyclo[2.2.1]hept-2-yl}-5-heptenoic acid]	–
41	8.2	3800	O=C(O)CCC/C=C\C[C@H]1[C@@H]2CC[C@@H](C2)[C@@H]1NC(=O)c1csc2ccccc12 [Compd. 4, (5Z)-7-{(1R, 2S, 3S, 4S)-3-(Benzo[b]thiophen-3-carbonylamino)-bicyclo[2.2. 1]hept-2-yl}-5-heptenoic acid]	–
8.2	180	–	O=C(O)CCC/C=C\C[C@H]1[C@@H]2CC[C@@H](C2)[C@@H]1NC(=O)c1csc2cc(O)ccc12 [Compd. 6]	–
34	57	–	O=C(O)CCC/C=C\C[C@H]1[C@@H]2CC[C@@H](C2)[C@@H]1NC(=O)c1csc2ccc(F)cc12 [Compd. 5, (5Z)-7-{(1R, 2S, 3S, 4S)-3-(5-Fluorobenzo[b]thiophen-3-carbonylamino)-bicyclo[2.2. 1]hept-2-yl}-5-heptenoic acid]	–
22	87	–	O=C(O)CCC/C=C\C[C@H]1[C@@H]2CC[C@@H](C2)[C@@H]1NC(=O)c1cccc2ccsc12 [Compd. 3, (5Z)-7-{(1R, 2S, 3S, 4S)-3-(Benzo[b]thiophen-7-carbonylamino)-bicyclo[2.2. 1]hept-2-yl}-5-heptenoic acid]	–
